# Results: patent US10479795B2 (Incyte Corporation, priority 2016, dated 2019)
# Where a name gives a salt, the structure may show the parent alone.
# Experiments:
# [1] = biological target: PI3Kδ (p110δ/p85α) Recombinant Human Protein (Homo sapiens (Human), UniProt O00329); test: PI3Kδ Scintillation Proximity Assay; assay type: biochemical
# Method in brief: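 Recombinant human p110δ/p85α (3.4 nM) phosphorylates 20 μM di-octanoyl PIP2 using 2 μM ATP spiked with [γ-33P]ATP, 120 min, room temperature, pH 6.7, 2% DMSO. Product measured by scintillation proximity; IC50 from dose-response fit.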
# [2] = tested on: Phosphorylated Ribosomal Protein S6 (RPS6); test: THP-1 RPS6 ELISA Assay; assay type: cell-based, Human; conditions: THP-1 cells; read-out: PI3Kγ_THP1_RPS6_ELISA IC50
# Method in brief: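 Serum-starved THP-1 cells were preincubated with a concentration range of compound for 2 h at 37 °C, then stimulated with 10 nM MCP-1 for 15 min. Phospho-RPS6 in lysates was quantified by ELISA at 450 nm. IC50 came from percent inhibition versus log inhibitor concentration.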
# [3] = biological target: PI3Kγ (p110γ) Recombinant Human Protein (Homo sapiens (Human), UniProt P48736); test: PI3K-γ Scintillation Proximity Assay; assay type: biochemical; conditions: read-out: PI3Kγ IC50
# Method in brief: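 Recombinant human p110γ assayed at room temperature in 20 mM MOPS pH 6.7, 10 mM MgCl2, 5 mM DTT, 0.03% CHAPS, 2% DMSO, with 20 μM PIP2 and 2 μM ATP plus [γ-33P]ATP. Product captured on WGA SPA beads overnight and counted; IC50 fitted from % of solvent-control activity versus log inhibitor concentration.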
# Chain of PI3Kδ (p110δ/p85α) Recombinant Human Protein (O00329 whole entry): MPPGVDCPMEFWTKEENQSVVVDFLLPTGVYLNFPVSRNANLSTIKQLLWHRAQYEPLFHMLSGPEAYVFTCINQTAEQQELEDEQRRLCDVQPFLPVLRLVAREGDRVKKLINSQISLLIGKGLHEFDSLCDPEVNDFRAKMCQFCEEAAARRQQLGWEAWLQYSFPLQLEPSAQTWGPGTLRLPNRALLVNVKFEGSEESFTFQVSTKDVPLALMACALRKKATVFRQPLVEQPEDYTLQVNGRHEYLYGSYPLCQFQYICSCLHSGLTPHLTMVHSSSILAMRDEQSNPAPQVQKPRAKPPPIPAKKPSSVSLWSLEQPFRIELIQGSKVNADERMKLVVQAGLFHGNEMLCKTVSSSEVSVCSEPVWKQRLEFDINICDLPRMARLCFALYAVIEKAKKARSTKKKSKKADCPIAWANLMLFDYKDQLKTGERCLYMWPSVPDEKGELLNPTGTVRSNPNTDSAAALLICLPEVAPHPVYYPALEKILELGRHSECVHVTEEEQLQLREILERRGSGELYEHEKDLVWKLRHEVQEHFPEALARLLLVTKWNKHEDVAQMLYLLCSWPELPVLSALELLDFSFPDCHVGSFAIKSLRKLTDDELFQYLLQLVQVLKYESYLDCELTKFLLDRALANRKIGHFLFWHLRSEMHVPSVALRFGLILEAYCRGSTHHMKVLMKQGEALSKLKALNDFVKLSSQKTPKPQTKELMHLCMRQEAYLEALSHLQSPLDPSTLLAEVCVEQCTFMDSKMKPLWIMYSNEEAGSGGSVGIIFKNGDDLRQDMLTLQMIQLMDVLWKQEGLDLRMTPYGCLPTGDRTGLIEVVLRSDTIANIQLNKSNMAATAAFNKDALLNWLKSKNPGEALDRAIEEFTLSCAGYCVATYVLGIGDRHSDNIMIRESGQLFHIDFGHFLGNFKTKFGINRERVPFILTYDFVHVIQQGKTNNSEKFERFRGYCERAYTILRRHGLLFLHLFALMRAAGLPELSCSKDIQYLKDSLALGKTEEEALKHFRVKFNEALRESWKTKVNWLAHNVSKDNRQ
# Chain of PI3Kδ (p110δ/p85α) Recombinant Human Protein (P27986 whole entry partner): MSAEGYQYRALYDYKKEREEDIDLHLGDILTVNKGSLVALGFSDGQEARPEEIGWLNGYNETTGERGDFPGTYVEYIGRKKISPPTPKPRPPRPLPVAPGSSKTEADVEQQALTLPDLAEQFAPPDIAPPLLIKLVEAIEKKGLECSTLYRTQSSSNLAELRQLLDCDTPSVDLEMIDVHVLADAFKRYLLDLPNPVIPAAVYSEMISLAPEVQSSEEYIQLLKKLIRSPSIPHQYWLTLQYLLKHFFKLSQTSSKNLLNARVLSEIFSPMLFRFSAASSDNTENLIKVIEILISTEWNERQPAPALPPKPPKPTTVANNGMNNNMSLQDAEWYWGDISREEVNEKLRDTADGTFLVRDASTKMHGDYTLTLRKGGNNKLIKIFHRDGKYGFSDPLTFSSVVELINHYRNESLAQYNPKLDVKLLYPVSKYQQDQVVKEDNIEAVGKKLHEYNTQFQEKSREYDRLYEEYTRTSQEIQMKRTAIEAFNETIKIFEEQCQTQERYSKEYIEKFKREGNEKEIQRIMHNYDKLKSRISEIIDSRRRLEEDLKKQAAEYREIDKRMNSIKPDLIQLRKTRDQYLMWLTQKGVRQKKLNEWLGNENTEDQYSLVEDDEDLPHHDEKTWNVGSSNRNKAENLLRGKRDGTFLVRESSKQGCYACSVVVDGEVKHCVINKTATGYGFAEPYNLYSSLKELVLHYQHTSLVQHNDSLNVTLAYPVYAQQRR
# Chain of PI3Kγ (p110γ) Recombinant Human Protein (P48736 whole entry): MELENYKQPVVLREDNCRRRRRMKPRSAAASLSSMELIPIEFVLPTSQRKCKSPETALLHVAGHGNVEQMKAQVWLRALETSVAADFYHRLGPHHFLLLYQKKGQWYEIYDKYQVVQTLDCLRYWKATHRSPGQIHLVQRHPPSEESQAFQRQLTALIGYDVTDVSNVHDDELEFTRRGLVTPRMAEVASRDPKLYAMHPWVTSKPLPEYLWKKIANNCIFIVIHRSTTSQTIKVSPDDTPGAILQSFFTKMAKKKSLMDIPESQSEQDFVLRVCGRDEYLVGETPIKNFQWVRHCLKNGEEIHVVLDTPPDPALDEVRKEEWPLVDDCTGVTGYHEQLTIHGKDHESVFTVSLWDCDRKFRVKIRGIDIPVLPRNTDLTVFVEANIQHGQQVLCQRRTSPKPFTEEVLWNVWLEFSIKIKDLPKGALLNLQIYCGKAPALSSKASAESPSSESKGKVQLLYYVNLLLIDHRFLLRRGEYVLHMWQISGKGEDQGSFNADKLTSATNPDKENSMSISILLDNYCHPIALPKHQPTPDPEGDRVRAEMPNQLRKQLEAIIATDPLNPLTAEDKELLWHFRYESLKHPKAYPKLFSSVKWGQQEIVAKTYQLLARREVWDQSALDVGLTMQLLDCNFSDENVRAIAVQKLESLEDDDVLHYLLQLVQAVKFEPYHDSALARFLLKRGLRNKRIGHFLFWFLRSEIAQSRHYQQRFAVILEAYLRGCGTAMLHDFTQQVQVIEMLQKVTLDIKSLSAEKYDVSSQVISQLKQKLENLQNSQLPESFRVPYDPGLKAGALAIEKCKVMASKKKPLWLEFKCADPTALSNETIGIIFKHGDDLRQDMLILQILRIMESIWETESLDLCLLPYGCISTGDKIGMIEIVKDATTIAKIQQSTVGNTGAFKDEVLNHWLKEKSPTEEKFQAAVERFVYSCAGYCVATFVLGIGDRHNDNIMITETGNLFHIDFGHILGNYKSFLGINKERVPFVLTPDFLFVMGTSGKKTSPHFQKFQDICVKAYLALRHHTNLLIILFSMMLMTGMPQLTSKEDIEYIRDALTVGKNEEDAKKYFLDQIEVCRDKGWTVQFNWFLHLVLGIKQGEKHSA
SMILES,IC50 [1],IC50 [2],IC50 [3]
"COC(=O)C12CC(NS(=O)(=O)c3ccc(C)c(-c4cnc5c(N)ncnn45)c3)(C1)C2 [Example 88, Methyl 3-(3-(4-aminoimidazo[1,2-f][1,2,4]triazin-7-yl)-4-methylphenylsulfonamido)bicyclo[1.1.1]pentane-1-carboxylate trifluoroacetate salt]",100 to 500 nM,< 100 nM,< 100 nM
"Cc1ccc(S(=O)(=O)N[C@H]2C[C@H](C#N)C2)cc1-c1cnc2c(N)ncnn12 [Example 89, 3-(4-Aminoimidazo[1,2-f][1,2,4]triazin-7-yl)-N-((1r,3r)-3-cyanocyclobutyl)-4-methylbenzenesulfonamide trifluoroacetate salt]",100 to 500 nM,< 100 nM,< 100 nM
"Cc1ccc(S(=O)(=O)NC23CC(Cn4cccn4)(C2)C3)cc1-c1cnc2c(N)ncnn12 [Example 92, N-(3-((1H-pyrazol-1-yl)methyl)bicyclo[1.1.1]pentan-1-yl)-3-(4-aminoimidazo[1,2-f][1,2,4]triazin-7-yl)-4-methylbenzenesulfonamide trifluoroacetate salt]",100 to 500 nM,< 100 nM,< 100 nM
"Cc1ccc(S(=O)(=O)NC23CC(C(C)(C)O)(C2)C3)cc1-c1cnc2c(N)ncnn12 [Example 93, 3-(4-Aminoimidazo[1,2-f][1,2,4]triazin-7-yl)-N-(3-(2-hydroxypropan-2-yl)bicyclo[1.1.1]pentan-1-yl)-4-methylbenzenesulfonamide trifluoroacetate slt]",100 to 500 nM,100 to 500 nM,< 100 nM
"Cc1noc(C23CC(NS(=O)(=O)c4ccc(C)c(-c5cnc6c(N)ncnn56)c4)(C2)C3)n1 [Example 94, 3-(4-Aminoimidazo[1,2-f][1,2,4]triazin-7-yl)-4-methyl-N-(3-(3-methyl-1,2,4-oxadiazol-5-yl)bicyclo[1.1.1]pentan-1-yl)benzenesulfonamide trifluoroacetate salt]",100 to 500 nM,500 to 1000 nM,< 100 nM
"CC(=O)C12CC(NS(=O)(=O)c3ccc(C)c(-c4cnc5c(N)ncnn45)c3)(C1)C2 [Example 95, N-(3-Acetylbicyclo[1.1.1]pentan-1-yl)-3-(4-aminoimidazo[1,2-f][1,2,4]triazin-7-yl)-4-methylbenzenesulfonamide trifluoroacetate salt]",100 to 500 nM,100 to 500 nM,< 100 nM
"Cc1ccc(S(=O)(=O)NC23CC(C(=O)N(C)C)(C2)C3)cc1-c1cnc2c(N)ncnn12 [Example 96, 3-(3-(4-Aminoimidazo[1,2-f][1,2,4]triazin-7-yl)-4-methylphenylsulfonamido)-N,N-dimethylbicyclo[1.1.1]pentane-1-carboxamide trifluoroacetate salt]",100 to 500 nM,> 1000 nM,< 100 nM
"Cc1ccc(S(=O)(=O)NC23CC(C(F)(F)F)(C2)C3)cc1-c1cnc2c(N)ncnn12 [Example 97, 3-(4-Aminoimidazo[1,2-f][1,2,4]triazin-7-yl)-4-methyl-N-(3-(trifluoromethyl)bicyclo[1.1.1]pentan-1-yl)benzenesulfonamide trifluoroacetate salt]",100 to 500 nM,100 to 500 nM,< 100 nM
"Cc1ccc(S(=O)(=O)NC23CC(c4nnn[nH]4)(C2)C3)cc1-c1cnc2c(N)ncnn12 [Example 99, N-(3-(1H-tetrazol-5-yl)bicyclo[1.1.1]pentan-1-yl)-3-(4-aminoimidazo[1,2-f][1,2,4]triazin-7-yl)-4-methylbenzenesulfonamide trifluoroacetate salt]",500 to 2000 nM,> 1000 nM,< 100 nM
"Cc1ccc(S(=O)(=O)NC2CCOC2C)cc1-c1cnc2c(N)ncnn12 (stereo not drawn) [Example 100, 3-(4-Aminoimidazo[1,2-f][1,2,4]triazin-7-yl)-4-methyl-N-(2-methyltetrahydrofuran-3-yl)benzenesulfonamide trifluoroacetate salt]",500 to 2000 nM,500 to 1000 nM,< 100 nM
"Cc1ccc(S(=O)(=O)NCC2(C#N)CC2)cc1-c1cnc2c(N)ncnn12 [Example 101, 3-(4-Aminoimidazo[1,2-f][1,2,4]triazin-7-yl)-N-((1-cyanocyclopropyl)methyl)-4-methylbenzenesulfonamide trifluoroacetate salt]",500 to 2000 nM,> 1000 nM,< 100 nM
"Cc1ccc(S(=O)(=O)NCC2(C#N)CCC2)cc1-c1cnc2c(N)ncnn12 [Example 102, 3-(4-Aminoimidazo[1,2-f][1,2,4]triazin-7-yl)-N-((1-cyanocyclobutyl)methyl)-4-methylbenzenesulfonamide trifluoroacetate salt]",100 to 500 nM,100 to 500 nM,< 100 nM
"CC(=O)N1CC(NS(=O)(=O)c2ccc(C)c(-c3cnc4c(N)ncnn34)c2)C1 [Example 103, N-(1-Acetylazetidin-3-yl)-3-(4-aminoimidazo[1,2-f][1,2,4]triazin-7-yl)-4-methylbenzenesulfonamide trifluoroacetate salt]",500 to 2000 nM,> 1000 nM,< 100 nM
"Cc1ccc(S(=O)(=O)NC2COC2)cc1-c1cnc2c(N)ncnn12 [Example 104, 3-(4-Aminoimidazo[1,2-f][1,2,4]triazin-7-yl)-4-methyl-N-(oxetan-3-yl)benzenesulfonamide]",500 to 2000 nM,500 to 1000 nM,< 100 nM
"Cc1ccc(S(=O)(=O)NC23CC(c4cnco4)(C2)C3)cc1-c1cnc2c(N)ncnn12 [Example 111, 3-(4-Aminoimidazo[1,2-f][1,2,4]triazin-7-yl)-4-methyl-N-(3-(oxazol-5-yl)bicyclo[1.1.1]pentan-1-yl)benzenesulfonamide trifluoroacetate salt]",100 to 500 nM,100 to 500 nM,< 100 nM
"Cc1ccc(S(=O)(=O)NC23CC(Cn4ccnc4)(C2)C3)cc1-c1cnc2c(N)ncnn12 [Example 112, N-(3-((1H-Imidazol-1-yl)methyl)bicyclo[1.1.1]pentan-1-yl)-3-(4-aminoimidazo[1,2-f][1,2,4]triazin-7-yl)-4-methylbenzenesulfonamide trifluoroacetate salt]",100 to 500 nM,100 to 500 nM,< 100 nM

# The next lines start with the values.
IC50 [1],IC50 [2],IC50 [3],SMILES
100 to 500 nM,< 100 nM,< 100 nM,"Cc1ccc(S(=O)(=O)NC23CCC(C#N)(CC2)C3)cc1-c1cnc2c(N)ncnn12 [Example 90, 3-(4-Aminoimidazo[1,2-f][1,2,4]triazin-7-yl)-N-(4-cyanobicyclo[2.2.1]heptan-1-yl)-4-methylbenzenesulfonamide trifluoroacetate salt]"
100 to 500 nM,100 to 500 nM,< 100 nM,"Cc1ccc(S(=O)(=O)NC23CC(CC#N)(C2)C3)cc1-c1cnc2c(N)ncnn12 [Example 91, trifluoroacetate salt]"
500 to 2000 nM,100 to 500 nM,< 100 nM,"Cc1ccc(S(=O)(=O)NC23CC(F)(C2)C3)cc1-c1cnc2c(N)ncnn12 [Example 98, 3-(4-Aminoimidazo[1,2-f][1,2,4]triazin-7-yl)-N-(3-fluorobicyclo[1.1.1]pentan-1-yl)-4-methylbenzenesulfonamide trifluoroacetate salt]"
500 to 2000 nM,> 1000 nM,< 100 nM,"Cc1ccc(S(=O)(=O)NC23CC(C2)C3)cc1-c1cnc2c(N)ncnn12 [Example 106, 3-(4-Aminoimidazo[1,2-f][1,2,4]triazin-7-yl)-N-(bicyclo[1.1.1]pentan-1-yl)-4-methylbenzenesulfonamide trifluoroacetate salt]"
100 to 500 nM,500 to 1000 nM,< 100 nM,"Cc1ccc(S(=O)(=O)NC23CCC(CO)(C2)C3)cc1-c1cnc2c(N)ncnn12 [Example 107, 3-(4-Aminoimidazo[1,2-f][1,2,4]triazin-7-yl)-N-(4-(hydroxymethyl)bicyclo[2.1.1]hexan-1-yl)-4-methylbenzenesulfonamide trifluoroacetate salt]"
100 to 500 nM,100 to 500 nM,< 100 nM,"Cc1ccc(S(=O)(=O)NC23CCC(CC#N)(C2)C3)cc1-c1cnc2c(N)ncnn12 [Example 108, 3-(4-Aminoimidazo[1,2-f][1,2,4]triazin-7-yl)-N-(4-(cyanomethyl)bicyclo[2.1.1]hexan-1-yl)-4-methylbenzenesulfonamide trifluoroacetate salt]"
500 to 2000 nM,> 1000 nM,< 100 nM,"Cc1ccc(S(=O)(=O)NC23CCC(C(=O)O)(C2)C3)cc1-c1cnc2c(N)ncnn12 [Example 109, 4-(3-(4-Aminoimidazo[1,2-f][1,2,4]triazin-7-yl)-4-methylphenylsulfonamido)bicyclo[2.1.1]hexane-1-carboxylic acid]"
100 to 500 nM,> 1000 nM,< 100 nM,"Cc1ccc(S(=O)(=O)NC23CCC(C(N)=O)(C2)C3)cc1-c1cnc2c(N)ncnn12 [Example 110, 4-(3-(4-Aminoimidazo[1,2-f][1,2,4]triazin-7-yl)-4-methylphenylsulfonamido)bicyclo[2.1.1]hexane-1-carboxamide trifluoroacetate salt]"
